Experimental data published in patent US4594421A, “Imidazopyridine compounds” (priority 1984, dated 1986).
Where two headings read alike, the source gives them in different places.

What was measured:
[1] = Acute toxicity (LD50) in rat; parameters: species or system male Sprague-Dawley rats; details: in vivo, iv, Litchfield and Wilcoxon
Experimental: The LD50 were then calculated according to the method of Litchfield J. T. and Wilcoxon F. J. (J. Pharmac. Exp. Ther., 95, 99, 1949).

[2] = test system: arterial blood pressure and heart rate; test: Cardiovascular effects (arterial blood pressure and heart rate) in vivo; parameters: species or system male Sprague-Dawley rats; details: rat, i.v.; for Arterial blood pressure Δ % / Heart rate Δ %: at ED50 on muscular contraction
Experimental: (§1) in vivo, using the sciatic-gastrocnemious preparation, substantially following the method described by Hughes R. (Br. J. Anaesth. 44, 27, 1972). Male Sprague-Dawley rats weighing 200-250 g, anaesthetized (urethane 1,2 g/kg i.p.) and submitted to forced ventilation, were treated. The sciatic nerve was stimulated at a rate of 6 impulses per min. by means of square waves and overmaximal voltage with a duration of 0.5 msec. The left carotid artery was incannulated for the continuous registration of arterial blood pressure and heart rate.
(§2) The compounds to be tested were administered by i.v. route at increasing doses, given at intervals of at least 30 min. from one to another and, in any case, after the effect of previous administration had completely exhausted.
(§3) In addition, the time of latence (the interval between the administration and the maximal effect) and that of complete recovery have been determined.

[3] = test system: phrenic-diaphragm preparation; test: Neuromuscular blocking activity in vitro, phrenic-diaphragm preparation; parameters: species or system male Sprague-Dawley rats; details: rat phrenic-diaphragm, 37° C., cumulative concentrations, read-out: EC50 (effective concentration able to reduce the muscular contraction of 50%)
Experimental: (§4) The neuromuscular blocking activity has been evaluated:
in vitro, using the phrenic-diaphragm preparation according to the method described by Bulbring E. (Brit. J. Pharmac. Chemother. 1, 38, 1946). The preparation, taken from male Sprague-Dawley rats weighing 200-250 g, was placed into a bath for isolated organs, thermostatically kept at 37° C. and containing a nutritional liquid oxygenated with […] carboxygen. The phrenic nerve was stimulated by means of square wave impulses (12 per min., duration 0.5 msec., overmaximal voltage). […] The dose-effect curve, determined for each of them, allowed to calculate the EC50 or effective concentration able to reduce the muscular contraction of 50% (Table 1);

[4] = test system: sciatic-gastrocnemious preparation; test: Neuromuscular blocking activity in vivo, sciatic-gastrocnemious preparation; parameters: species or system male Sprague-Dawley rats; details: for ED50: iv, read-out: ED50 (effective dose causing the 50% reduction of muscular contraction)
Experimental: as §4, §1, §2, §3

[5] = test system: skeletal neuromuscular junction; details: known compound of the commerce; cited from earlier work
[6] = rat, i.v., anaesthetized (urethane)

Compound	LD50 [1] [µmol/kg]	Arterial blood pressure Δ % [2] [%]	Heart rate Δ % [2]	EC50 [3] [µM]	ED50 [4, 6] [µg/kg]	Latence (interval between the administration and the maximal effect) ([4]; rat, i.v.) [min]	Recovery (time of complete recovery) ([4]; rat, i.v.) [min]	Arterial blood pressure Δ % at minimal active dose ([2]; at minimal active dose on muscular contraction) [%]	ED50 ([4]; Rattus norvegicus) [µg/kg]	known activity of the standard [5]	activity in vivo ([4]; rat, i.v.)
Fc1ccc(-c2c[n+]3ccccc3n2CCCCCCn2c(-c3ccc(F)cc3)c[n+]3ccccc23)cc1 [Example 1, 1,1'-(1,6-Hexamethylene)bis[2-(4'-fluoro)phenyl]imidazo[1,2-a]pyridinium perchlorate]	3.9	-37	+28%	15	3	2.2	7.9	–	–	–	–
c1ccc(-c2c[n+]3ccccc3n2CCCCCCCCn2c(-c3ccccc3)c[n+]3ccccc23)cc1 [Example 2, 1,1'-(1,8-Octamethylene)bis-2-phenylimidazo[1,2-a]piridinium perchlorate]	2.7	-45	+22%	11.9	1.9	2.2	9.2	–	–	–	–
Cc1c(-c2ccccc2)n(CCCCCCCCn2c(-c3ccccc3)c(C)[n+]3ccccc23)c2cccc[n+]12 [Example 3, 1,1'-(1,8-Octamethylene)bis(2-phenyl-3-methyl)imiadazo[1,2-a]pyridinium perchlorate]	2	-28	+40%	14.3	1.6	1.2	5.0	–	–	–	–
Cc1c(-c2ccccc2)n(CCCCn2c(-c3ccccc3)c(C)[n+]3ccccc23)c2cccc[n+]12 [Example 4, 1,1'-(1,4-Tetramethylene)bis(2-phenyl-3-methyl)imidazo[1,2-a]pyridinium perchlorate]	4.3	-28	+1%	28.7	5	1.3	6.2	–	–	–	–
COc1ccc(-c2c[n+]3ccccc3n2CCCCCCn2c(-c3ccc(OC)cc3)c[n+]3ccccc23)cc1 [Example 5, 1,1'-(1,6-Hexamethylene)bis[2-(4'-methoxy)phenyl]imidazo[1,2-a]pyridinium bromide monohydrate]	2.6	-39	+26%	14.7	1.9	1.5	6.4	–	–	–	–
Brc1ccc(-c2c[n+]3ccccc3n2CCCCCCn2c(-c3ccc(Br)cc3)c[n+]3ccccc23)cc1 [Example 7, 1,1'-(1,6-Hexamethylene)bis[2-(4-bromophenyl)]imidazo[1,2-a]pyridinium bromide]	6	-50	-8%	15.4	3	1.5	9.8	–	–	–	–
Cc1c(-c2ccccc2)n(CCCCCCn2c(-c3ccccc3)c(C)[n+]3ccccc23)c2cccc[n+]12 [Example 8, 1,1'-(1,6-Hexamethylene)bis(2-phenyl-3-methyl)imidazo[1,2-a]pyridinium perchlorate]	2	-40	+68%	13.6	1.3	2.1	7.7	–	–	–	–
c1ccc(-c2c[n+]3ccccc3n2CCCCn2c(-c3ccccc3)c[n+]3ccccc23)cc1 [Example 9, 1,1'-(1,4-Tetramethylene)bis-2-phenylimidazo[1,2-a]pyridinium perchlorate]	3.2	-31	+25%	28.9	3.3	2.1	7.0	–	–	–	–
c1ccc(-c2c[n+]3ccccc3n2CCn2c(-c3ccccc3)c[n+]3ccccc23)cc1 [Example 10, 1,1'-(1,2-Ethylene)bis-2-phenylimidazo[1,2-a]pyridinium perchlorate]	8.8	-30	+28%	31.4	4	2.8	14.0	–	–	–	–
c1ccc(-c2c[n+]3ccccc3n2CCCCCCn2c(-c3ccccc3)c[n+]3ccccc23)cc1 [Example 11, 1,1'-(1,6-Hexamethylene)bis-2-phenylimidazo[1,2-a]pyridinium perchlorate]	3.1	-40	+42%	12.9	2.1	2.3	8.8	–	–	–	–
Cc1c(-c2ccccc2)n(CCn2c(-c3ccccc3)c(C)[n+]3ccccc23)c2cccc[n+]12 [Example 12, 1,1'-(1,2-Ethylene)bis(2-phenyl-3-methyl)imidazo[1,2-a]pyridinium perchlorate]	9.7	-5	+6%	115	–	2.6	12.2	-24	5.6	–	–
Cc1c(-c2ccccc2)n(/N=N/n2c(-c3ccccc3)c(C)[n+]3ccccc23)c2cccc[n+]12 [Fazadinium bromide, 1,1-azabis 3-methyl-2-phenylimidazo 1,2-a pyridinium bromide, reference compound]	1.5	-16	+30%	13.9	1	1.5	6.6	–	–	competitive skeletal muscle paralysing activity	active
